What was measured:
[1] = molecular target: T1, human Smo (amino acids 181-787) (Homo sapiens, UniProt Q99835); assay: Smo radioligand competition binding assay (displacement of 3H-PF-03451358 from HEK293 membranes); details: for inhibition at 0.05 µM: 0.05 μM test compound, displacement of 3H-PF-03451358, read-out: SMO % inh. @ 0.05 μM; for IC50: radioligand competition binding
T1 construct: expressed in transfected cells; membrane preparation
In short: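 Membranes (40 μg protein/well) from HEK293 expressing murine Igk-leader-fused Smo 181-787 incubated 2 h at room temperature with 3 nM 3H-PF-03451358 in Tris pH 7.5/NaCl/MgCl2/EDTA/BSA buffer; filter-bound counts by scintillation. Nonspecific binding with 30 μM cold PF-03451358; IC50 from four-parameter fit of % inhibition.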

[2] = system: Gli-Luc/MEF cells (Smo); assay: Gli-Luc/MEF assay (Shh-stimulated luciferase reporter under the Gli response element); assay type: cell-based, mouse; details: Mus musculus, MEF, 48 h
In short: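 Mouse Gli-Luc/MEF cells dosed with compound (3-fold series, […]) plus 2 μg/mL recombinant mouse Shh, then incubated 48 h at 37° C, 5% CO2. Bright-Glo luminescence read; IC50 calculated from inhibition of Shh-stimulated luciferase.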

T1 sequence (Q99835 181-787): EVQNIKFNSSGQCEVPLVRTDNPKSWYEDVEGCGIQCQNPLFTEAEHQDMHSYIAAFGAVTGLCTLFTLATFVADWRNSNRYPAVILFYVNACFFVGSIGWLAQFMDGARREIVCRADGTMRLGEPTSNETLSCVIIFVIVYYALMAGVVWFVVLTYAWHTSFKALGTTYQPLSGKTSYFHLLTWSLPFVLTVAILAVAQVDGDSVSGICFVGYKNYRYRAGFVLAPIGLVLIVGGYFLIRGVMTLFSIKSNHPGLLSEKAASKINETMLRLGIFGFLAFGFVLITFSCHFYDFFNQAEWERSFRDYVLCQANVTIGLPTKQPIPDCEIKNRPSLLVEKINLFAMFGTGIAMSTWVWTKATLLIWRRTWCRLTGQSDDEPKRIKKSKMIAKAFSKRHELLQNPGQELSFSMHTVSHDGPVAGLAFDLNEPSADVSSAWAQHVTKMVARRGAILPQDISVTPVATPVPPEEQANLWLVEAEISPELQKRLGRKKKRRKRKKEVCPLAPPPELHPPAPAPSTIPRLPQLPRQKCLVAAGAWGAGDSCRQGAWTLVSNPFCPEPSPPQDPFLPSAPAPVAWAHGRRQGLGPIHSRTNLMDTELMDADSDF

SMILES	inhibition at 0.05 µM [1] [%]	IC50 [1] [nM]	IC50 [2] [nM]
CCS(=O)(=O)NC1CCN(c2cc(-c3nc4ccccc4n3C)c(F)cn2)CC1 [Example D-9, N-{1-[5-fluoro-4-(1-methyl-1H-benzimidazol-2-yl)pyridin-2-yl]piperidin-4-yl}ethanesulfonamide]	99	5	3.9
Cn1c(-c2cc(N3CC[C@H](O)C3)ncc2Cl)nc2ccccc21 [Example A-28, (3S)-1-[5-chloro-4-(1-methyl-1H-benzimidazol-2-yl)pyridin-2-yl]pyrrolidin-3-ol]	82	79	52
CN(CC(C)(C)O)c1cc(-c2nc3ccccc3n2C)c(Cl)cn1 [Example A-209, 1-{[5-chloro-4-(1-methyl-1H-benzimidazol-2-yl)pyridin-2-yl](methyl)amino}-2-methylpropan-2-ol]	97	18	19.6
Cn1c(-c2nc(N3CCC(NS(C)(=O)=O)CC3)ncc2Cl)nc2ccccc21 [Example C-9, N-{1-[5-chloro-4-(1-methyl-1H-benzimidazol-2-yl)pyrimidin-2-yl]piperidin-4-yl}methanesulfonamide]	100	6	2
CN(CCS(C)(=O)=O)c1cc(-c2nc3ccccc3n2C)c(Cl)cn1 [Example A-72, 5-chloro-N-methyl-4-(1-methyl-1H-benzimidazol-2-yl)-N-[2-(methylsulfonyl)ethyl]pyridin-2-amine]	94	25	12
Cn1c(-c2cc(N3CCCN(C4=NCCC(=O)N4)CC3)ncc2Cl)nc2ccccc21 [Example A-130, 2-{4-[5-chloro-4-(1-methyl-1H-benzimidazol-2-yl)pyridin-2-yl]-1,4-diazepan-1-yl}-5,6-dihydropyrimidin-4(3H)-one]	53		129
Cc1ccc(N2CCC(S(C)(=O)=O)CC2)nc1-c1nc2ccccc2n1C [Example E-6, 1-methyl-2-{3-methyl-6-[4-(methylsulfonyl)piperidin-1-yl]pyridin-2-yl}-1H-benzimidazole]	89	51	61.6
Cc1nccc(C2(O)CCN(c3cc(-c4nc5ccccc5n4C)c(Cl)cn3)C2)n1 (stereo not shown) [Example A-123, 1-[5-chloro-4-(1-methyl-1H-benzimidazol-2-yl)pyridin-2-yl]-3-(2-methylpyrimidin-4-yl)pyrrolidin-3-ol]	59		114
Cn1c(-c2cc(N3C[C@@H](CO)[C@@H](CO)C3)ncc2Cl)nc2ccccc21 [Example A-82, {(3R,4S)-1-[5-chloro-4-(1-methyl-1H-benzimidazol-2-yl)pyridin-2-yl]pyrrolidine-3,4-diyl}dimethanol]	91	43	16
CC(=O)N1CCCN(c2cc(-c3nc4cccnc4n3C)c(Cl)cn2)CC1 [Example A-39, 2-[2-(4-acetyl-1,4-diazepan-1-yl)-5-chloropyridin-4-yl]-3-methyl-3H-imidazo[4,5-b]pyridine]	92	45	30
Cn1c(-c2cc(N3CCOCC(N4CCC(O)CC4)C3)ncc2Cl)nc2ccccc21 (stereo not shown) [Example A-115, 1-{4-[5-chloro-4-(1-methyl-1H-benzimidazol-2-yl)pyridin-2-yl]-1,4-oxazepan-6-yl}piperidin-4-ol]	69		221
Cn1c(-c2cc(N3CCOCC(Cc4cncnc4)C3)ncc2Cl)nc2ccccc21 (stereo not shown) [Example A-46, 2-{5-chloro-2-[6-(pyrimidin-5-ylmethyl)-1,4-oxazepan-4-yl]pyridin-4-yl}-1-methyl-1H-benzimidazole]	101	14	9
CC(=O)N1CCN(c2cc(-c3nc4ccccc4n3C)c(C)cn2)CC1 [Example E-4, 2-[2-(4-acetylpiperazin-1-yl)-5-methylpyridin-4-yl]-1-methyl-1H-benzimidazole]	92	61	52.5
Cn1c(-c2ccnc(N3CCC(NS(C)(=O)=O)CC3)n2)nc2ccccc21 [Example C-10, N-{1-[4-(1-methyl-1H-benzimidazol-2-yl)pyrimidin-2-yl]piperidin-4-yl}methanesulfonamide]	97	44	57
COC(=O)NC1CCN(c2cc(-c3nc4ccccc4n3C)c(Cl)cn2)CC1 [Example A-32, methyl {1-[5-chloro-4-(1-methyl-1H-benzimidazol-2-yl)pyridin-2-yl]piperidin-4-yl}carbamate]	89	7	1
CCn1c(-c2cc(N3CCN(C(C)=O)CC3)ncc2Cl)nc2ccccc21 [Example A-214, 2-[2-(4-acetylpiperazin-1-yl)-5-chloropyridin-4-yl]-1-ethyl-1H-benzimidazole]	63	432	124
Cn1c(-c2cc(N3CCC(N4CCC(O)CC4)CC3)ncc2Cl)nc2ccccc21 [Example A-119, 1′-[5-chloro-4-(1-methyl-1H-benzimidazol-2-yl)pyridin-2-yl]-1,4′-bipiperidin-4-ol]	64		111
CC(=O)N1CCCN(c2cc(-c3nc4ccccc4n3C)ccn2)CC1 [Example A-154, 2-[2-(4-acetyl-1,4-diazepan-1-yl)pyridin-4-yl]-1-methyl-1H-benzimidazole]	90	33	20
COC(=O)NC1CCN(c2cc(-c3nc4ccccc4n3C)c(Cl)cn2)C1 (stereo not shown) [Example A-152, methyl {1-[5-chloro-4-(1-methyl-1H-benzimidazol-2-yl)pyridin-2-yl]pyrrolidin-3-yl}carbamate]	87	69	21
CNC(=O)N(C)C1CN(c2cc(-c3nc4ccccc4n3C)c(Cl)cn2)C1 [Example A-151, 1-{1-[5-chloro-4-(1-methyl-1H-benzimidazol-2-yl)pyridin-2-yl]azetidin-3-yl}-1,3-dimethylurea]	83	90	26
COC(=O)N1CCN(c2ncc(Cl)c(-c3nc4ccccc4n3C)n2)CC1 [Example C-5, Methyl 4-[5-chloro-4-(1-methyl-1H-benzimidazol-2-yl)pyrimidin-2-yl]piperazine-1-carboxylate]	96	14	9
Cn1c(-c2ccnc(N3CCC(N4CCOC4=O)CC3)c2)nc2ccccc21 [Example A-15, 3-{1-[4-(1-methyl-1H-benzimidazol-2-yl)pyridin-2-yl]piperidin-4-yl}-1,3-oxazolidin-2-one]	53	404	180
CN(C)C(=O)COC1CCN(c2cc(-c3nc4ccccc4n3C)c(Cl)cn2)C1 (stereo in doubt) [Example A-126, 2-({(3R)-1-[5-chloro-4-(1-methyl-1H-benzimidazol-2-yl)pyridin-2-yl]pyrrolidin-3-yl}oxy)-N,N-dimethylacetamide]	57		109
